In patent US9828379B2 (priority 2013, dated 2017) one finds IC50 and inhibition data, which are given here for 13 molecules.

Where only a bound is given, the exact number is not on record here.

Test [1] concerns the target T1, ABHD6 (Mus musculus, UniProt Q8R2Y0).
T1 sequence (Q8R2Y0 1-336): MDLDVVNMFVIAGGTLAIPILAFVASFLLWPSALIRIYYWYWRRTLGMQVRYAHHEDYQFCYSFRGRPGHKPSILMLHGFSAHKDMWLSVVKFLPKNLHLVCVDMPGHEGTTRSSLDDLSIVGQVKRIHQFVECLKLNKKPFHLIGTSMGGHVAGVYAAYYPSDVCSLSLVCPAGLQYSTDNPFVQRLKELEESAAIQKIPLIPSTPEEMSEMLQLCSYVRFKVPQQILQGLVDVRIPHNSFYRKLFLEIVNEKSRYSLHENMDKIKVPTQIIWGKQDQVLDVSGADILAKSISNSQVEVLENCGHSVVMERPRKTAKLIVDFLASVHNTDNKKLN
Description: biochemical. To be noted: in vitro competitive ABPP.

For test [2], the target named is T2, FAAH (Mus musculus, UniProt O08914).
T2 sequence (O08914 1-579): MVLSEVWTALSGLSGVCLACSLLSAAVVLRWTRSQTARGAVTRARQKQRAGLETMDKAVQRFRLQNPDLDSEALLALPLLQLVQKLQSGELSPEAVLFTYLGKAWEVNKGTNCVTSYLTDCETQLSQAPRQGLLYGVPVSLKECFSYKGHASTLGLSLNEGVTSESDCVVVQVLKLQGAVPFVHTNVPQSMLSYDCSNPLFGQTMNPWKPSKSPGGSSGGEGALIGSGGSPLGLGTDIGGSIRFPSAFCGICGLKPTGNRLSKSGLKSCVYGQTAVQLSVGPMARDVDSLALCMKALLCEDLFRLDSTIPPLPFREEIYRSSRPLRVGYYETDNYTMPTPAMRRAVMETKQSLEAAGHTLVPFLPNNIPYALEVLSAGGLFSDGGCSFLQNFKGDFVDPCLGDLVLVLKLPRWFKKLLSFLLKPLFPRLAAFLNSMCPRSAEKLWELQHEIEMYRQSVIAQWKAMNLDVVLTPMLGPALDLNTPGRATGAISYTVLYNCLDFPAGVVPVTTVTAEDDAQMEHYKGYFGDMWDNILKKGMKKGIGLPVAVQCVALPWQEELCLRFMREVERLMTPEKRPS
Put plainly: biochemical. Conditions: in vitro competitive ABPP.

For test [3], the target named is T3, MAGL (Mus musculus, UniProt O35678).
T3 sequence (O35678 1-303): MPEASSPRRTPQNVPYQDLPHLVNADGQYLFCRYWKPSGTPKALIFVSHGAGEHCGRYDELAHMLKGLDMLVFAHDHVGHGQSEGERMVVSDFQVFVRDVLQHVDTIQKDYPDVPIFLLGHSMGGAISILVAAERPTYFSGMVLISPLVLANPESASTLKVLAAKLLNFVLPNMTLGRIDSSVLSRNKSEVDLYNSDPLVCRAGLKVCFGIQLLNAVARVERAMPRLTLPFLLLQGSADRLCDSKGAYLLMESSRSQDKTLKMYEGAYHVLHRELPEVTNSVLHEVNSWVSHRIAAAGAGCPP
Put plainly: In vitro competitive activity-based protein profiling (Table 2, % inhibition at 1 μM). It counts as biochemical. To be noted: read-out: % Inhibition at 1 μM MAGL. The protocol: After 30 min, FP—Rh (1.0 μL, 50 μM in DMSO) was added and the mixture was incubated for another 30 min at 37° C. Reactions were quenched with SDS loading buffer (50 μL-4×) and run on SDS-PAGE.
Cell lysates were diluted with mock proteomes for use in competitive ABPP experiments.

The target of test [4] is T2, FAAH. Described as above. It counts as biochemical. To be noted: read-out: % Inhibition at 1 μM FAAH.
Test [5] concerns the target T1, ABHD6. The test is described as above. Type of test: biochemical. Conditions: read-out: % Inhibition at 1 μM ABHD6.
Test [6] concerns the target T3, MAGL. Description: biochemical. Conditions: mouse; in vitro competitive ABPP; read-out: Mouse (IC50 value, nM) MAGL.

Turning to `O=C(OC(C(F)(F)F)C(F)(F)F)N1CC2CN(Cc3ccc(N4CCCCC4)cc3C(F)F)CC2C1` (stereo not drawn) [Example 201, 1,1,1,3,3,3-hexafluoropropan-2-yl 5-(2-(difluoromethyl)-4-(piperidin-1-yl)benzyl)hexahydropyrrolo[3,4-c]pyrrole-2(1H)-carboxylate], the IC50 – broadly, the point on the concentration scale where inhibition reaches its midpoint – was 1000 to 10000 nM at ABHD6 [1], 1000 to 10000 nM on FAAH [2] and 100 to 1000 nM at MAGL [6]. Further, the inhibition (commonly the percentage by which the read-out fell short of the control) at 1 µM on MAGL [3] is > 75%; on FAAH [4] it was 25 to 75%; at ABHD6 [5], < 25%.
Consider `O=C(OC(C(F)(F)F)C(F)(F)F)N1CC2CN(Cc3ccc(Cl)cc3N3CCC4(CCOCC4)C3)CC2C1` (stereo not drawn) [Example 31, 1,1,1,3,3,3-Hexafluoropropan-2-yl 5-[(4-chloro-2-[8-oxa-2-azaspiro[4.5]decan-2-yl]phenyl)methyl]-octahydropyrrolo[3,4-c]pyrrole-2-carboxylate], for which the results for the IC50 on ABHD6 [1], on FAAH [2] and on MAGL [6] were 1000 to 10000 nM, 1000 to 10000 nM and < 100 nM, respectively. The figures for the inhibition at 1 µM on MAGL [3], at FAAH [4] and on ABHD6 [5] were > 75%, < 25% and < 25%, respectively.
For `CCn1cc(CN2CC3CN(C(=O)OC(C(F)(F)F)C(F)(F)F)CC3C2)c(-c2ccncc2)n1` (stereo not drawn) [Example 72, 1,1,1,3,3,3-Hexafluoropropan-2-yl 5-[[1-ethyl-3-(pyridin-4-yl)-1H-pyrazol-4-yl]methyl]-octahydropyrrolo[3,4-c]pyrrole-2-carboxylate], the values for the IC50 at ABHD6 [1], at FAAH [2] and at MAGL [6] were 1000 to 10000 nM, 1000 to 10000 nM and < 100 nM, respectively. Further, the inhibition at 1 µM at MAGL [3] is > 75%; on FAAH [4], < 25%; at ABHD6 [5], 25 to 75%.
In the case of `CC1COCCN1c1ccc(CN2CC3CN(C(=O)OC(C(F)(F)F)C(F)(F)F)CC3C2)c(Cl)c1` (stereo not drawn) [Example 27, 1,1,1,3,3,3-Hexafluoropropan-2-yl 5-[[2-chloro-4-(3-methylmorpholin-4-yl)phenyl]methyl]-octahydropyrrolo[3,4-c]pyrrole-2-carboxylate], the IC50 on ABHD6 [1] is 1000 to 10000 nM; on FAAH [2], 1000 to 10000 nM; at MAGL [6], < 100 nM. For the same molecule, the inhibition at 1 µM on MAGL [3] is > 75%; at FAAH [4], 25 to 75%; at ABHD6 [5], < 25%.
On to `Cc1c(CN2CC3CN(C(=O)OC(C(F)(F)F)C(F)(F)F)CC3C2)cccc1N1CCN(C)CC1` (stereo not drawn) [Example 154, 1,1,1,3,3,3-hexafluoropropan-2-yl 5-[[2-methyl-3-(4-methylpiperazin-1-yl)phenyl]methyl]-octahydropyrrolo[3,4-c]pyrrole-2-carboxylate], for which the figures for the IC50 on ABHD6 [1], at FAAH [2] and at MAGL [6] were 1000 to 10000 nM, > 10000 nM and 100 to 1000 nM, respectively. Moreover, the figures for the inhibition at 1 µM on MAGL [3], at FAAH [4] and at ABHD6 [5] were > 75%, < 25% and < 25%, respectively.
Consider `C#CCNC(=O)c1nn(CC)cc1CN1CC2CN(C(=O)OC(C(F)(F)F)C(F)(F)F)CC2C1` (stereo not drawn) [Example 178, 1,1,1,3,3,3-hexafluoropropan-2-yl 5-((1-ethyl-3-(prop-2-yn-1-ylcarbamoyl)-1H-pyrazol-4-yl)methyl)hexahydropyrrolo[3,4-c]pyrrole-2(1H)-carboxylate], for which the results for the half-maximal inhibitory concentration (IC50) on ABHD6 [1], on FAAH [2] and at MAGL [6] were 1000 to 10000 nM, > 10000 nM and 100 to 1000 nM, respectively. Moreover, the inhibition at 1 µM was > 75% at MAGL [3], < 25% at FAAH [4] and < 25% on ABHD6 [5].
Regarding `CC(=O)N1CCN(c2ccc(CN3CC4CN(C(=O)OC(C(F)(F)F)C(F)(F)F)CC4C3)c(F)c2)CC1` (stereo not drawn) [Example 26, 1,1,1,3,3,3-Hexafluoropropan-2-yl 5-[[4-(4-acetylpiperazin-1-yl)-2-fluorophenyl]methyl]-octahydropyrrolo[3,4-c]pyrrole-2-carboxylate], the IC50 is 1000 to 10000 nM at ABHD6 [1], 1000 to 10000 nM on FAAH [2] and 100 to 1000 nM on MAGL [6]. Besides, the inhibition at 1 µM on MAGL [3] is > 75%; on FAAH [4] it was < 25%; on ABHD6 [5] it was 25 to 75%.
Regarding `O=C(OC(C(F)(F)F)C(F)(F)F)N1CC2CN(Cc3ccc(C(F)F)cc3N3CCCC3)CC2C1` (stereo not drawn) [Example 205, 1,1,1,3,3,3-hexafluoropropan-2-yl 5-(4-(difluoromethyl)-2-(pyrrolidin-1-yl)benzyl)hexahydropyrrolo[3,4-c]pyrrole-2(1H)-carboxylate], the IC50 on ABHD6 [1] was 1000 to 10000 nM; at FAAH [2] it was 1000 to 10000 nM; on MAGL [6] it was < 100 nM. Besides, the inhibition at 1 µM at MAGL [3] was > 75%; on FAAH [4], < 25%; on ABHD6 [5], < 25%.
On to `O=C(OC(C(F)(F)F)C(F)(F)F)N1CC2CN(Cc3ccc(Cl)cc3N3CCCC3)CC2C1` (stereo not drawn) [Example 19, 1,1,1,3,3,3-Hexafluoropropan-2-yl 5-[[4-chloro-2-(pyrrolidin-1-yl)phenyl]methyl]-octahydropyrrolo[3,4-c]pyrrole-2-carboxylate], for which the IC50 is 1000 to 10000 nM on ABHD6 [1], 1000 to 10000 nM on FAAH [2] and < 100 nM on MAGL [6]. Besides, the inhibition at 1 µM at MAGL [3] was > 75%; on FAAH [4], 25 to 75%; at ABHD6 [5], < 25%.
Regarding `O=C(OC(C(F)(F)F)C(F)(F)F)N1CC2CN(Cc3ccc(N4CCOCC4)cc3Cl)CC2C1` (stereo not drawn) [Example 2, 1,1,1,3,3,3-Hexafluoropropan-2-yl 5-(2-chloro-4-morpholinobenzyl)hexahydropyrrolo[3,4-c]pyrrole-2(1H)-carboxylate], the IC50 was 1000 to 10000 nM at ABHD6 [1], 100 to 1000 nM at FAAH [2] and < 100 nM at MAGL [6]. Moreover, the values for the inhibition at 1 µM at MAGL [3], at FAAH [4] and at ABHD6 [5] were > 75%, 25 to 75% and < 25%, respectively.
On to `CC1COCCN1c1ccc(CN2CC3CN(C(=O)OC(C(F)(F)F)C(F)(F)F)CC3C2)c(F)c1` (stereo not drawn) [Example 25, 1,1,1,3,3,3-Hexafluoropropan-2-yl 5-[[2-fluoro-4-(3-methylmorpholin-4-yl)phenyl]methyl]-octahydropyrrolo[3,4-c]pyrrole-2-carboxylate], for which the IC50 at ABHD6 [1] is 1000 to 10000 nM; on FAAH [2] it was 1000 to 10000 nM; on MAGL [6] it was < 100 nM. The results for the inhibition at 1 µM at MAGL [3], at FAAH [4] and at ABHD6 [5] were > 75%, 25 to 75% and 25 to 75%, respectively.
As for `O=C(OC(C(F)(F)F)C(F)(F)F)N1CC2CN(Cc3ccc(C(=O)N4CCCC4)c(OC(F)(F)F)c3)CC2C1` (stereo not drawn) [Example 193, 1,1,1,3,3,3-hexafluoropropan-2-yl 5-(4-(pyrrolidine-1-carbonyl)-3-(trifluoromethoxy)benzyl)hexahydropyrrolo[3,4-c]pyrrole-2(1H)-carboxylate], the results for the IC50 on ABHD6 [1], on FAAH [2] and on MAGL [6] were 1000 to 10000 nM, > 10000 nM and 100 to 1000 nM, respectively. Besides, the inhibition at 1 µM at MAGL [3] is > 75%; on FAAH [4], < 25%; at ABHD6 [5], 25 to 75%.
On to `Cn1nc(-c2cccc(F)c2)cc1CN1CC2CN(C(=O)OC(C(F)(F)F)C(F)(F)F)CC2C1` (stereo not drawn) [Example 195, 1,1,1,3,3,3-hexafluoropropan-2-yl 5-((3-(3-fluorophenyl)-1-methyl-1H-pyrazol-5-yl)methyl)hexahydropyrrolo[3,4-c]pyrrole-2(1H)-carboxylate], for which the IC50 is 100 to 1000 nM on ABHD6 [1], 1000 to 10000 nM on FAAH [2] and < 100 nM on MAGL [6]. Also, the inhibition at 1 µM is > 75% at MAGL [3], < 25% on FAAH [4] and 25 to 75% on ABHD6 [5].
